From PubChem BioAssay AID624167 (Sanford-Burnham Center for Chemical Genomics, 2012)
Calls of active or inactive are those of the source.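 How the source made its calls: active means mean IC50 for reducing PEG3 promoter reporter signal at or below a set limit, with IC50 above the limit in both counter screens; inactive means the rest, including counter screen hits.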

Columns and labels:
PEG-3 [1] = assay: inhibition of PEG-3 promoter-driven reporter – cell-based, HeLa, luciferase, CREF/GAPDH counter-screen panel, dose response (AID 624167); details: HeLa PEG-Prom luciferase reporter, overnight, CREF/GAPDH counter-screens
PEG-3 [2] = target: PEG-3 (UniProt Q6IN02); assay: as above; details: HeLa PEG-Prom luciferase reporter, overnight, CREF/GAPDH counter-screens, mean of runs
PEG-3 (UniProt Q6IN02), sequence (Q6IN02 whole entry, looked up): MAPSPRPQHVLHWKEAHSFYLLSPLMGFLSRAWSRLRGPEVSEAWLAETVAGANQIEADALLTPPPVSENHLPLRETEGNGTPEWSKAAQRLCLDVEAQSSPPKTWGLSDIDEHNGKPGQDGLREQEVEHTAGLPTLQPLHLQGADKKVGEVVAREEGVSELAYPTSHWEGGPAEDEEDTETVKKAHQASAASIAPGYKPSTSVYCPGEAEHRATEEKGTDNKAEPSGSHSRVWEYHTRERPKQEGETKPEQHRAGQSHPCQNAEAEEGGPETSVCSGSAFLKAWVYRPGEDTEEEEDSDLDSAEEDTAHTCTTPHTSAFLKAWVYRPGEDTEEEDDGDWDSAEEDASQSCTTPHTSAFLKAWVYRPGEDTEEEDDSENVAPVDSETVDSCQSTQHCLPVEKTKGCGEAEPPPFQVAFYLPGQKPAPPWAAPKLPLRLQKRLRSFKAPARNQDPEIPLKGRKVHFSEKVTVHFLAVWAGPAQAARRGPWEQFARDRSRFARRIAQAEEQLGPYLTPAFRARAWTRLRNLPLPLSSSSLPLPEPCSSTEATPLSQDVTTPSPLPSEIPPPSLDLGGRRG

[3] = run 1, dose range 1, individual replicate IC50 per panel
[4] = run 2, dose range 1, individual replicate IC50 per panel

Row | Compound | IC50 (PEG-3 [1]; [3]) | IC50 (PEG-3 [1]; [4]) | IC50 (PEG-3 [2])
1 | COc1ccc(CCn2c(=N)c(C(=O)NC3CCCC3)cc3c(=O)n4cccc(C)c4nc32)cc1 | 15.8 µM | 42.7 µM | inactive
2 | Cc1ccc(NCCN(C)C)c2c(=O)c3cc(O)ccc3sc12 | 19.1 µM | 8.02 µM | 13.6 µM
3 | CCN(Cc1ccccc1)S(=O)(=O)c1ccc(C(=O)N(CCCN(C)C)c2nc3cc4c(cc3s2)OCCO4)cc1 | 33.3 µM | > 100 µM | inactive
4 | Cc1cc(C)c2sc(N(CCCN(C)C)C(=O)c3ccc(S(=O)(=O)N(C)Cc4ccccc4)cc3)nc2c1 | 20.3 µM | 17.4 µM | 18.9 µM
5 | COc1cc(/C=C2\SC(=S)N(CCC(=O)N3CCCCC3)C2=O)cc(OC)c1OC | 35.1 µM | 19.1 µM | inactive
6 | CCC(C)NCCOCCOc1ccc(Cl)c2ccccc12 (stereo not given) | 18.6 µM | 17.5 µM | 18.1 µM
7 | O=C(CN1CCN(Cc2ccccc2Cl)CC1)N=Nc1c(O)[nH]c2ccccc12 | 5.23 µM | > 100 µM | inactive
8 | CCC1CCCCN1S(=O)(=O)c1ccc(C(=O)N(CCCN(C)C)c2nc3cc4c(cc3s2)OCO4)cc1 (stereo not given) | 21.9 µM | 49.9 µM | inactive
9 | CCCCCCCCCC[N+](C)(C)CC/C=C1/c2ccccc2Sc2ccc(Cl)cc21 | 14.9 µM | 8.43 µM | 11.7 µM
10 | O=C(NC(c1ccc(F)cc1)c1ccc2ccccc2n1)C1CCN(Cc2cccc(C(F)(F)F)c2)CC1 (stereo not given) | 16.2 µM | 7.91 µM | 12.1 µM
11 | CNCC(O)c1cc(OCc2ccccc2)c(OCc2ccccc2)cc1F (stereo not given) | 20.8 µM | 16.3 µM | 18.5 µM
12 | CN(C)CCCNc1ncnc2oc(-c3ccccc3)c(-c3ccccc3)c12 | 16.6 µM | 14.8 µM | 15.7 µM
13 | Cc1cc(C)c2nc(N(CCCN(C)C)C(=O)c3ccc(S(=O)(=O)N4CCCCCC4)cc3)sc2c1 | 24.3 µM | 15.6 µM | 20 µM
14 | COc1ccc(-c2nc3c(C(=O)NCCN(C)C)cccc3c3ccccc23)cc1 | 17.3 µM | 12.8 µM | 15 µM
15 | Cc1[nH]c2ccc(OC(F)(F)F)cc2c1CCNCc1cccc([N+](=O)[O-])c1 | 25.1 µM | > 100 µM | inactive
16 | c1ccc(CCCNCCCn2cnc3c(OCc4ccccc4)ncnc32)cc1 | 34.7 µM | 19.5 µM | inactive
17 | COc1ccc(/C=C/C(=O)c2ccc3c(c2)OCCO3)cc1[N+](=O)[O-] | 17.2 µM | 16.7 µM | 17 µM
18 | CN(Cc1ccccc1)C(=O)c1ccc(Nc2nc(C(N)Cc3ccccc3)cs2)nc1 (stereo not given) | 21.8 µM | 14.8 µM | 18.3 µM
19 | COc1cccc(NC(=O)Nc2cccc(C(=O)O)c2)c1 | 15.1 µM | 30 µM | inactive
20 | CCCOc1ccc(NC(=O)CC2C(=O)N(CC)C(=S)N2CCCN2CCN(Cc3ccccc3)CC2)cc1 (stereo not given) | 20.6 µM | 17.2 µM | 18.9 µM
21 | O=C1NC(=O)N(Cc2ccccc2)C(=O)/C1=C\C=C\c1ccco1 | 15.1 µM | 12 µM | 13.5 µM
22 | O=C(Nc1ccc(-c2nc3ccccc3o2)cc1)c1ccc(N2CCOCC2)c([N+](=O)[O-])c1 | > 100 µM | > 100 µM | > 100 µM (inactive)

Row | Compound | IC50 (PEG-3 [1]; [3]) | IC50 (PEG-3 [1]; [4]) | IC50 (PEG-3 [2])
23 | CC(=O)N1CCN(c2cc(-c3ccccc3)nc3cc(-c4cccc(Cl)c4)nn23)CC1 | 23.8 µM | 18.3 µM | inactive
24 | COC(=O)C1=C(C)N(Cc2ccccc2)C(=NCc2cccc(Cl)c2)N[C@H]1c1ccccc1 | 19.1 µM | 12.7 µM | 15.9 µM
25 | CCc1cccc(CC)c1NC(=S)NCCc1c(C)[nH]c2ccc(C)cc12 | 29.6 µM | 13.8 µM | inactive
26 | COc1ccc(CN(C)C(=O)c2cc(-c3ccccc3)nc3ccc(C)cc23)c(OC)c1OC | 32.8 µM | 23.7 µM | inactive
27 | CCN1CCc2c(sc(NC(=O)c3ccc(S(=O)(=O)N4CCCCCC4)cc3)c2C(=O)NC)C1 | 21.2 µM | 24.5 µM | inactive
28 | CC(C)c1ccc(-c2nc3ccccc3s2)cc1 | 14 µM | 40.2 µM | inactive
29 | CCOC(=O)c1c(NC(C)=O)sc2c(OCC(O)CN(CC)CC)c(Br)ccc12 (stereo not given) | 20.7 µM | 7.1 µM | 13.9 µM
30 | COc1cccc(N2CCN(CC(=O)Nc3ccccc3C(=O)NCc3ccccc3)CC2)c1 | 16.6 µM | 35 µM | inactive
31 | COC(=O)C1=C(C)N(Cc2ccccc2)C(=NCCc2c[nH]c3ccccc23)N[C@H]1c1cccc(C(F)(F)F)c1 | 17.8 µM | 23 µM | inactive
32 | COc1ccc(CC(N)c2csc(Nc3cccc(OC)n3)n2)cc1 (stereo not given) | 17.6 µM | 14.2 µM | 15.9 µM
33 | CCCN(CCC)CCCNC(=S)Nc1ccc2nc(N3CCCC3)cc(C)c2c1 | 27.5 µM | 19.1 µM | inactive
34 | O=C1NC(=O)N(Cc2ccco2)C(=O)/C1=C/C=C/c1ccco1 | 14.8 µM | 12.6 µM | 13.7 µM
35 | CCOC(=O)c1ccc2ncc(C(=O)OCC)c(NCCN(C)C)c2c1 | 15 µM | 43.4 µM | inactive
36 | COC(=O)Cc1[nH]n(-c2nc3ccccc3s2)c(=O)c1C(C)=Nc1ccc(Cl)cc1 | 24.7 µM | 0.372 µM | 12.5 µM
37 | COC(=O)c1ccc(Nc2cc(C)nc3ccc(C)cc23)cc1 | 17.9 µM | 9.4 µM | 13.6 µM
38 | COc1ccc(CC(N)c2csc(NC(=O)Nc3ccccc3C(C)(C)C)n2)cc1 (stereo not given) | 19.1 µM | 31 µM | inactive
39 | COc1ccc(-c2cc(C(=O)Nc3ccccc3N3CCOCC3)c3ccccc3n2)cc1OC | > 100 µM | > 100 µM | > 100 µM (inactive)
40 | C/C(=N\N=C(N)N)c1ccc(Cl)cc1Cl | 18.7 µM | 17.2 µM | 18 µM
41 | CC(=O)Nc1cccc(NC(=O)c2cc(-c3cccnc3)nc3ccc(Cl)cc23)c1 | 50.2 µM | 59.2 µM | inactive
42 | COc1ccc(-c2sc3ccccc3c2-c2ccc(OCCN3CCCCC3)cc2)cc1 | 20.9 µM | 20.2 µM | inactive
43 | CCN(c1ccccc1)S(=O)(=O)c1ccc(C(=O)N(CCCN(C)C)c2nc3cc4c(cc3s2)OCO4)cc1 | 23.6 µM | 19.7 µM | inactive
44 | CCn1c(C)cc(C(=O)COC(=O)c2ccccc2[N+](=O)[O-])c1C | 35.8 µM | 1.77 µM | 18.8 µM

Row | Compound | IC50 (PEG-3 [1]; [3]) | IC50 (PEG-3 [1]; [4]) | IC50 (PEG-3 [2])
45 | CC(C)(C)OC(=O)CC(S(=O)(=O)c1ccccc1)S(=O)(=O)c1ccccc1 | 21 µM | 7.58 µM | 14.3 µM
46 | COc1ccc(N(Cc2cc3cc(OC)ccc3[nH]c2=O)S(=O)(=O)c2ccc(NC(C)=O)cc2)cc1 | 17.8 µM | 11 µM | 14.4 µM
47 | O=C(CCCN1C(=O)/C(=C/c2cccc(Br)c2)SC1=S)Nc1cccnc1 | 15.1 µM | 12.1 µM | 13.6 µM
48 | N/C(=N\OC(=O)c1ccccc1)C(C(=O)NOC(=O)c1ccccc1)C1CCCCC1 (stereo not given) | 24.5 µM | > 100 µM | inactive
49 | O=C(Nc1ccccc1)c1nc[nH]c1C(=O)NCCCNC(=O)c1[nH]cnc1C(=O)Nc1ccccc1 | 17.2 µM | > 100 µM | inactive
50 | CC[n+]1c(-c2ccccc2)c2cc(N)ccc2c2ccc(N)cc21 | 7.7 µM | 23.6 µM | 15.7 µM
51 | CC1(C)Cc2c(C#N)c(N3CCNCC3)nc(-c3ccco3)c2CS1 | 22.7 µM | 17.2 µM | 19.9 µM
52 | c1ccc(-c2cc(-c3ccccc3)[n+](-c3ccccc3)c(-c3ccccc3)c2)cc1 | 10.7 µM | 13.9 µM | 12.3 µM
53 | CCOc1ccc(Nc2c3ccccc3nc3ccccc23)cc1 | 21.9 µM | 11.9 µM | 16.9 µM
54 | c1ccc(CCNc2nc(-c3ccncc3)nc3ccccc23)cc1 | 17.7 µM | 8.58 µM | 13.1 µM
55 | CCn1cc(C(=O)NCCC(C)C)c(=O)c2cc(F)c(N3CCN(C(=O)c4ccco4)CC3)cc21 | 37.8 µM | > 100 µM | inactive
56 | COCCn1c(C)cc(C2=NNC(=NC3CC3)SC2)c1C | 1.32 µM | < 0.2 µM | 0.76 µM
57 | COc1ccc(C2c3ccc4ccccc4c3Oc3ncn(CCO)c(=N)c32)cc1OC (stereo not given) | 15.6 µM | 13.7 µM | 14.7 µM
58 | O=C(Nc1ccc(S(=O)(=O)NC2=NCCCCC2)cc1)c1ccc([N+](=O)[O-])s1 | 19.2 µM | 11.7 µM | 15.4 µM
59 | CC(C)CN(C(=O)COC(=O)/C=C/c1ccc(Cl)c(Cl)c1)c1c(N)n(Cc2ccccc2)c(=O)[nH]c1=O | > 100 µM | > 100 µM | > 100 µM (inactive)
60 | COc1ccc(C(=O)Nc2cccc(C(=O)N/N=C/c3ccc(OC)cc3OC)c2)cc1 | 28.1 µM | 38 µM | inactive
61 | CCOc1cc(/C=N/N=C(N)N)ccc1OCc1ccc(Cl)cc1 | 16.9 µM | 9.05 µM | 13 µM
62 | CCN1CCCC1CN(Cc1cc2ccc(C)cc2[nH]c1=O)C(=S)Nc1ccc(OC)cc1 (stereo not given) | 42 µM | 37.5 µM | inactive
63 | Cc1ccc(Cn2c(=N)n(CC(=O)c3ccccc3)c3ccccc32)cc1 | 15.4 µM | 17.6 µM | 16.5 µM
64 | Cc1ccc(C(=O)N2CCN(c3ccc([N+](=O)[O-])c(NCc4cccnc4)c3)CC2)cc1 | 10.6 µM | 22.7 µM | 16.7 µM
65 | Cc1ccc2[nH]c3c(c2c1)CCCC3NC(=O)CCl (stereo not given) | 23.3 µM | 49.8 µM | inactive
